{"source": "paper PMC9919490", "about": "“Synthesis and Biological Evaluation of Novel Dispiro-Indolinones with Anticancer Activity” (Molecules, 2023)", "key": {"[1]": {"tested_on": "p53, PUMA, CASPASE-3 in HCTwt cells", "experiment": "Western blot, p53 and p53-dependent apoptosis proteins", "format": "cell-based", "protocol": "To verify the mechanism of cytotoxic action of the synthesized dispiro-indolinones, Western blot testing of dispiro-indolinone 29 was performed using the p53-expressing HCTwt and LNCaP cell lines. Both the p53 protein and the proteins involved in the p53-dependent process of apoptosis (i.e., BAX, NOXA, and PUMA) were determined. For comparison, similar testing was carried out for a cell line not expressing p53 (HCT^(−/−))."}, "HCT^−/− cells": {"tested_on": "HCT^−/− cells", "experiment": "MTT cytotoxicity assay, HCT^−/− (p53 neg)", "format": "cell-based", "conditions": "48 h"}, "HCT^wt cells": {"tested_on": "HCT^wt cells", "experiment": "MTT cytotoxicity assay, HCT^wt (p53 pos)", "format": "cell-based", "conditions": "48 h"}, "HCT116 tumor xenografts": {"tested_on": "HCT116 tumor xenografts", "experiment": "HCT116 xenograft model", "quoted_text": "The first implantation of HCT116 tumor cells (1 × 10^6 in a volume of 0.5 mL) was performed subcutaneously into two BALB/c nude mice. The first transplantation of the xenograft (50 mg) was performed after 30 days into 2 mice (the 3rd passage was used in vivo). […] Then, in a laminar flow hood, the tumor suspension (0.5 mL, the first passage) was implanted subcutaneously into the flank area of two BALB/c nude mice (males). After a volume of 0.8–1.0 cm^3 was achieved, the nudes were passaged using 4 donor mice to obtain the desired grade and mass of the transplants. […] The tumor nests were mechanistically disintegrated to obtain 10% of the tumor samples, and then the nutrient medium was added. The inoculation was performed using individual sterile plastic syringes (1 mL) equipped with 18G suture needles. The transplantation was carried out bilaterally in the flank areas. Each mouse was inoculated with 0.5 mL (10%) of the tumor suspension (40 mg of the tumor mass for each animal). Prior to inoculation, the animals’ skin was treated with 70% alcohol. Between injections, the Petri dish containing the tumor suspension was tightly covered to avoid any contamination. Before injection, the suspension was vigorously stirred in a syringe. […]"}, "[2]": {"experiment": "Solubility in aqueous media (observation)", "format": "physicochemical", "conditions": "observed in acute toxicity pilot, doses > 2500 mg/kg not feasible", "protocol": "To select the doses, the pilot experiments were carried out on a minimum number of animals. […] When administered in large doses during autopsy in the abdominal cavities of the mice, on the inner wall and membranes of the abdominal organs, remnants of the non-absorbed drug were found in the form of white layers, indicating incomplete absorption and insufficient solubility of the agent. […] According to the data obtained from the trial experiment, in the main study—with intraperitoneal administration—a dose of 2500 mg/kg was used."}, "P388": {"tested_on": "P388", "experiment": "P388 transplant model in mice", "format": "in vivo", "conditions": "for ALS (average life span): control 16.6 ± 1.8 d", "protocol": "To preliminary estimate the antitumor effect of the compound in vivo, transplant P388 and HCT116 xenograft mouse models were used.\nPrior to the trials, the animals were split into different groups (five mice per group). One group was monitored as a control population, where the animals were kept untreated, while the other groups were subjected to the tested compound. […] Four independent trials were carried out.\nFor the first evaluation, the sample was initially injected i.p. on day 2 of the study, and the treatment was subsequently continued during the following 9 days (total 10 d course). The typical doses were calculated considering the average body weight of the animals (20 g) and ranged between groups 1 and 3; group 4 was assigned as a control population. […] To verify the obtained results, we performed the second evaluation using the following schedule: the first group was administered i.p. with 500 mg/kg (5000 mg/kg), the second group was given 750 mg/kg (7500 mg/kg), and the third group was given 1000 mg/kg (10,000 mg/kg). We also carried out the third trial with an appropriate dose of 1000 mg/kg. For p.o. administration (trial 4), we used a single dose (170 mg/kg) of the unmodified compound; the cumulative dose was 1700 mg/kg.\nDBA2 mice were used as donors of cancerous mass; a total of 50 animals were recruited. Twenty-three conventional, immunodeficient female mice (BALB/c nude, 20–23 g) were housed in RAMS and used as donors and recipients for HCT116 cells.\nFor the evaluation of the compound against leucosis in vivo, we used 5 and 8 passages of P388 culture. […]"}, "Acute toxicity": {"experiment": "Acute toxicity", "format": "in vivo", "conditions": "for body weight (M ± m): i.p. 2500 mg/kg", "protocol": "Acute toxicity tests were performed on mature outbred mice (male and female). The design of the experiment is specified in Table S3 (Supplementary Materials).\nTo select the doses, the pilot experiments were carried out on a minimum number of animals.\nThe surviving animals were subjected to euthanasia and necropsy on the 29th day of the experiment to study the effects of the test agent on their internal organs.\nOutbred mice (males and females) were used in the experiments. Intraperitoneal injections were applied in the posterior third of the abdomen, slightly departing from the midline. The mice were injected with 1 mL of the solution. […] The solution was prepared ex tempore. Doses were calculated for each animal separately, according to body weight data.\nThe group arithmetic mean (M) and standard error of the mean (m) were calculated. Statistical significance of the differences was assessed using Student’s t-test. The differences between these groups were considered significant at p < 0.05."}, "[3]": {"conditions": "first trial, i.p. 295 mg/kg (g1)"}, "[4]": {"conditions": "first trial, i.p. 882 mg/kg (g2)"}}, "data": [{"smiles": "CCOc1ccc(N2C(=O)C3(NC2=S)C(c2ccc(Cl)cc2)CN(C)C32C(=O)Nc3ccc(Br)cc32)cc1", "note": "(stereo not drawn) [Compound 29]", "values": [{"measurement": "concentration / expression of the p53 protein", "setting": "[1]; HCTwt cell culture, increasing concentration, nutlin-3a 20 µM positive control", "result": "slight increase"}, {"measurement": "expression of CASPASE-3", "setting": "[1]; Western blot", "result": "increase"}, {"measurement": "expression of PUMA", "setting": "[1]; Western blot", "result": "increase"}, {"measurement": "IC50", "setting": "HCT^−/− cells", "result": "70.5 ± 15.2", "unit": "µM"}, {"measurement": "IC50", "setting": "HCT^wt cells", "result": "14.1 ± 4.2", "unit": "µM"}, {"measurement": "T/C", "setting": "HCT116 tumor xenografts; 1000 mg/kg i.p. o.d. 10 days, after 4 days, p = 0.0007", "result": 44, "unit": "%"}, {"measurement": "T/C (treatment/control)", "setting": "HCT116 tumor xenografts; sample 1000 mg/kg i.p. o.d. 10 days, after 24 h, p = 0.00005", "result": 25, "unit": "%"}, {"measurement": "solubility in aqueous media", "setting": "[2]", "result": "low solubility"}, {"measurement": "mortality at highest dose, close to the MTD", "setting": "P388; 1263 mg/kg (12,630 mg/kg cumulative), day 3 after the treatment was stopped", "result": "one mouse (bw = 19 g) dying"}, {"measurement": "days on which lethal outcomes were registered", "setting": "P388; [3]", "result": "16 to 24", "unit": "days"}, {"measurement": "LSE (lifespan extension)", "setting": "P388; first trial, i.p. 295 mg/kg (g1), p > 0.05", "result": 17, "unit": "%"}, {"measurement": "ALS (average life span)", "setting": "P388; [3]", "result": "19.8 ± 3.0", "unit": "days"}, {"measurement": "days on which lethal outcomes were registered", "setting": "P388; [4]", "result": "18 to 22", "unit": "days"}, {"measurement": "LSE (lifespan extension)", "setting": "P388; first trial, i.p. 882 mg/kg (g2), p > 0.05", "result": 19, "unit": "%"}, {"measurement": "ALS (average life span)", "setting": "P388; [4]", "result": "19.4 ± 1.7", "unit": "days"}, {"measurement": "days on which deaths were observed", "setting": "P388; first trial, i.p. 1176 mg/kg (g3)", "result": "14 to 22", "unit": "days"}, {"measurement": "TGRI", "setting": "P388; first trial, i.p. 1176 mg/kg (g3), subsequent three days", "result": 40, "unit": "%"}, {"measurement": "TGRI", "setting": "P388; first trial, i.p. 1176 mg/kg daily (g3), 24 h after the treatment was discontinued", "result": 76, "unit": "%"}, {"measurement": "T/C", "setting": "P388; first trial, i.p. o.d. 10 days, 295 and 882 mg/kg", "result": "< 42", "unit": "%"}, {"measurement": "TGRI (tumor growth rate inhibition)", "setting": "P388; first trial, sample (17% compound, Pluronic F-127) i.p. o.d. 10 days, 295 mg/kg (g1) and 882 mg/kg (g2), p > 0.05", "result": "32–37%"}, {"measurement": "TGRI", "setting": "P388; i.p. 500 mg/kg", "result": "approx. 50%"}, {"measurement": "Т/C%", "setting": "P388; p.o. 170 mg/kg o.d. 10 days, day 12", "result": 84, "unit": "%"}, {"measurement": "Tumor volume, av. volume", "setting": "P388; p.o. 170 mg/kg o.d. 10 days, day 12, control 570", "result": 481, "unit": "mm3"}, {"measurement": "Tumor volume, av. volume", "setting": "P388; p.o. 170 mg/kg o.d. 10 days, day 15, control 804", "result": 1099, "unit": "mm3"}, {"measurement": "TGRI", "setting": "P388; second trial, i.p. 750 mg/kg o.d., day 2 after the treatment was completed, p = 0.002", "result": 68, "unit": "%"}, {"measurement": "TGRI", "setting": "P388; second trial, i.p. 750 mg/kg o.d., subsequent 3 days", "result": 62, "unit": "%"}, {"measurement": "LSE", "setting": "P388; third trial, i.p. 1000 mg/kg o.d.", "result": 33.33, "unit": "%"}, {"measurement": "TGRI", "setting": "P388; third trial, i.p. 1000 mg/kg o.d. 10 days, day 2 after the treatment was completed", "result": 81.3, "unit": "%"}, {"measurement": "TGRI", "setting": "P388; third trial, i.p. 1000 mg/kg o.d., day 8 after the treatment was discontinued (final control timepoint)", "result": 93, "unit": "%"}, {"measurement": "TGRI", "setting": "P388; third trial, i.p. 1000 mg/kg o.d., following 3 days", "result": 89, "unit": "%"}, {"measurement": "autopsy finding", "setting": "Acute toxicity; 29th day after exposure, intraperitoneal 2500 mg/kg", "result": "increase in the liver, with signs of dystrophy"}, {"measurement": "dynamics of body weight", "setting": "Acute toxicity; intraperitoneal 2500 mg/kg, vs control mice", "result": "did not show differences from the control mice"}, {"measurement": "clinical picture of intoxication", "setting": "Acute toxicity; intraperitoneal, 2500 mg/kg", "result": "depressed state, a decrease in motor activity, and the release of porphyrin"}, {"measurement": "time after which symptoms of intoxication disappeared", "setting": "Acute toxicity; intraperitoneal, 2500 mg/kg", "result": "30 to 60", "unit": "min"}, {"measurement": "deaths", "setting": "Acute toxicity; intraperitoneal, 2500 mg/kg, observation 28 days", "result": "no deaths were registered"}, {"measurement": "body weight (M ± m)", "setting": "Acute toxicity; ♀, day 0", "result": "23,8±0,54 grams"}, {"measurement": "body weight (M ± m)", "setting": "Acute toxicity; ♀, day 7", "result": "24,0±1,25 grams"}, {"measurement": "body weight (M ± m)", "setting": "Acute toxicity; ♀, day 14", "result": "24,5±0,91 grams"}, {"measurement": "body weight (M ± m)", "setting": "Acute toxicity; ♀, day 21", "result": "24,0±1,13 grams"}, {"measurement": "body weight (M ± m)", "setting": "Acute toxicity; ♀, day 29", "result": "25,0±1,18 grams"}, {"measurement": "body weight (M ± m)", "setting": "Acute toxicity; ♂, day 0", "result": "24,6±0,53 grams"}, {"measurement": "body weight (M ± m)", "setting": "Acute toxicity; ♂, day 7", "result": "25,2±0,49 grams"}, {"measurement": "body weight (M ± m)", "setting": "Acute toxicity; ♂, day 14", "result": "26,9±0,58 grams"}, {"measurement": "body weight (M ± m)", "setting": "Acute toxicity; ♂, day 21", "result": "26,0±0,63 grams"}, {"measurement": "body weight (M ± m)", "setting": "Acute toxicity; ♂, day 29", "result": "24,1±0,32 grams"}]}]}
